Results on four molecules are retold here after patent publication US11304963B2, “Methods of medical treatment with SUR1-TRPM4 channel inhibitors” (BIOGEN CHESAPEAKE LLC, priority 2016, dated 2022).

Some results are limits rather than exact numbers.

In one series the test system is subjects with LHI. The experiment in a line: Mortality study in 77 subjects with LHI given Cirara and/or tPA. The format is in vivo, human. The note with it: Group 1: tPA and a placebo; 22 subjects with LHI; tPA within 4.5 hours of stroke onset. The protocol:
As used herein, the term “placebo” refers to an ostensibly pharmaceutical formulation with no pharmaceutically active agent, or lacks the particular pharmaceutical agent of interest in a given study. In the examples disclosed herein, the placebo is lacking the SUR1-TRPM4 channel inhibitor. As used herein, the term “Cirara” refers to a commercially available intravenous formulation of glyburide. In this example, tPA was administered in accordance with current clinical guidelines for managing ischemic stroke within 4.5 hours of stroke onset (Jauch et al. 2013).
The adverse outcome examined in the study was death. This was for exemplary purposes only and is not intended to be limiting.

Series [1] can be described thus: Plasma pharmacokinetics of glyburide, bolus injection followed by 72 hours continuous infusion, healthy adult subjects. Particulars: for Metabolite exposure versus administered dose of RP-1127: 0.4 mg/day vs 3.0 mg/day; for Metabolite level as share of the glyburide steady-state concentration: on average; for Average plasma metabolite concentration: through 72.5 hours after the initial bolus injection.
Protocol: The two groups are referred to as the 0.4 mg/day group and the 3.0 mg/day group, respectively.

The next series relates to migraine. The experiment in a line: Clinical trial of glyburide for the prevention of migraine. Type of series: in vivo, human. Particulars: patients with a history of migraine; after 12 weeks of treatment; 0.5-3.0 mg/day. The protocol: This is a randomized, double-blind, placebo-controlled, parallel Group, dose-ranging study to investigate the efficacy, safety and tolerability of glyburide for the prevention of migraine.
(§1) In one arm, glyburide is administered as a bolus followed by continuous infusion.
(§2) In a second arm, glyburide is administered via a transdermal patch or gel.
(§3) In a third arm, glyburide is administered via injection, e.g., intravenous infusion.
(§4) In a fourth arm, glyburide is administered orally.
The study duration is several days up to one week.
Number of migraine headache days during weeks 9-12 of the treatment period.
Change in Scores From Completeness of Response Survey (CORS) (Time Frame: Visit 1 (screening) and Visit 2 (study completion following 2-month treatment period)).
CORS scores for Pain (0-4), Associated Symptoms (0-4), Limbic/Affective Symptoms (0-5), and Speed of Return to Functionality (1-5), represent outcome measures that are relevant to patients. Higher scores represent better treatment efficacy.
The analysis compares CORS scores for usual treatment (pre-study) versus glyburide (study medication).

The test system of series [2] is cerebral edema-related side effects. The experiment in a line: Clinical trial of glyburide in patients undergoing CAR-T therapy, surgical excision of a brain tumor, and/or diagnosed with cerebral edema. The format is in vivo, human. The note with it: 0.5-3.0 mg/day. The protocol:
as §1, §2, §3, §4
The study duration is days up to weeks.
Plasma levels of glyburide are determined daily.
The control group is matched for age, gender, and pre-operative stage.
(§5) Each patient is monitored via blood sampling and MRI. A diagnostic contrast-enhanced MRI of the brain is performed prior to inclusion in the study.
(§6) The following comparisons are made:
(§7) Occurrence of one or more cerebral edema-related side effects: • Headache • Neck pain or stiffness • Nausea or vomiting • Dizziness • Irregular breathing • Vision loss or changes • Memory loss • Inability to walk • Difficulty speaking • Stupor • Seizures • Loss of consciousness

For series [3] the test system is unchanged. Nature of the series: Clinical trial of glyburide in patients with brain tumors or metastasis undergoing radiation therapy. The format is in vivo, human. Particulars: 0.5-3.0 mg/day. As for the experimental part:
as §1, §2, §3, §4
The study duration is weeks to months.
Plasma levels of glyburide are determined weekly.
The control group is matched for age, gender, and pre-radiation therapy stage.
as §5, §6, §7

Regarding “tPA: Tissue plasminogen activator, a class of strong blood clot dissolving medicines”, in the series on subjects with LHI, the “Mortality Rate” value is 41%.
For `COc1ccc(Cl)cc1C(=O)NCCc1ccc(S(=O)(=O)NC(=O)NC2CCC(O)CC2)cc1` (centres unmarked) [M1], the “Time plasma metabolite levels first detected after the initial bolus RP-1127 IV injection” value in series [1] (0.4 mg/day dose group) came out at 1 h; in series [1] (3.0 mg/day dose group), 0.167 h. Also, in series [1], the “Metabolite exposure versus administered dose of RP-1127” value is on record as “approximately proportional to the administered dose”. In addition, in series [1], the “Metabolite level as share of the glyburide steady-state concentration” value is 18%.
Turning to `COc1ccc(Cl)cc1C(=O)NCCc1ccc(S(=O)(=O)NC(=O)NC2CCCC(O)C2)cc1` (centres unmarked) [M2], in series [1] (0.4 mg/day dose group), the “Time plasma metabolite levels first detected after the initial bolus RP-1127 IV injection” value came to 2 h and the “Average plasma metabolite concentration” value is no more than 0.19 ng/mL. In series [1], the “Metabolite exposure versus administered dose of RP-1127” value was “approximately proportional to the administered dose” and the “Metabolite level as share of the glyburide steady-state concentration” value was determined as 6%. In series [1] (3.0 mg/day dose group), the “Time plasma metabolite levels first detected after the initial bolus RP-1127 IV injection” value came to 0.333 h and the “Average plasma metabolite concentration” value is no more than 1.4 ng/mL.
For `COc1ccc(Cl)cc1C(=O)NCCc1ccc(S(=O)(=O)NC(=O)NC2CCCCC2)cc1` [Glyburide, glyburide], in the series with migraine, the “Migraine outcome measures compared with the placebo group” value was “significantly improved”. For the same molecule, the “Cerebral edema-related side effects compared with the control group” value in series [2] and in series [3] was “significantly reduced or inhibited” throughout.
